How the values were obtained:
[1] = system: Human immunodeficiency virus; test: Inhibition of HIV wild type integrase assessed as strand transfer activity U5 CTCA LTR by scintillation proximity assay relative to wild type LTR; parameters: scale not given: the % may be the effect or the level left; settings: tested as the 3H-labelled form
[2] = system: Human immunodeficiency virus type 1 integrase (Human immunodeficiency virus 1), Q7ZJM1 [N155H]; test: Inhibition of HIV recombinant integrase N155H mutant assessed as strand transfer activity using U5 GdCA LTR by scintillation proximity assay relative to wild type LTR; parameters: scale not given: the % may be the effect or the level left; settings: tested as the 3H-labelled form
[3] = system: Human immunodeficiency virus; test: Inhibition of HIV wild type integrase assessed as strand transfer activity using U5 GTAG LTR by scintillation proximity assay relative to wild type LTR; parameters: scale not given: the % may be the effect or the level left; settings: tested as the 3H-labelled form
[4] = system: Human immunodeficiency virus; test: Inhibition of HIV wild type integrase assessed as strand transfer activity using U5 GTGA LTR by scintillation proximity assay relative to wild type LTR; parameters: scale not given: the % may be the effect or the level left; settings: tested as the 3H-labelled form
[5] = system: Human immunodeficiency virus; test: Binding affinity to HIV wild type integrase using U5 GTCA/CG LTR relative to wild type LTR; settings: tested as the 3H-labelled form
[6] = system: Human immunodeficiency virus; test: Inhibition of HIV wild type integrase assessed as strand transfer activity using U5 TTCA LTR by scintillation proximity assay relative to wild type LTR; parameters: scale not given: the % may be the effect or the level left; settings: tested as the 3H-labelled form
[7] = system: Human immunodeficiency virus; test: Inhibition of HIV wild type integrase assessed as specific strand transfer activity using U5 ApTCA LTR by scintillation proximity assay relative to wild type LTR; parameters: scale not given: the % may be the effect or the level left; settings: tested as the 3H-labelled form
[8] = system: Human immunodeficiency virus type 1 integrase (Human immunodeficiency virus 1), Q7ZJM1 [N155H]; test: Binding affinity to HIV recombinant integrase N155H mutant using U5 dTCA LTR relative to wild type LTR; settings: tested as the 3H-labelled form
[9] = system: Human immunodeficiency virus; test: Inhibition of HIV wild type integrase assessed as specific strand transfer activity using U5 GInCA LTR by scintillation proximity assay relative to wild type LTR; parameters: scale not given: the % may be the effect or the level left; settings: tested as the 3H-labelled form
[10] = system: Human immunodeficiency virus; test: Binding affinity to HIV wild type integrase using U5 GddA LTR relative to wild type LTR; settings: tested as the 3H-labelled form
[11] = system: Human immunodeficiency virus type 1 integrase (Human immunodeficiency virus 1), Q7ZJM1 [N155H]; test: Binding affinity to HIV recombinant integrase N155H mutant using U5 INTCA LTR relative to wild type LTR; settings: tested as the 3H-labelled form
[12] = system: Human immunodeficiency virus; test: Inhibition of HIV wild type integrase assessed as strand transfer activity using U5 GTGC LTR by scintillation proximity assay relative to wild type LTR; parameters: scale not given: the % may be the effect or the level left; settings: tested as the 3H-labelled form
[13] = system: Human immunodeficiency virus; test: Binding affinity to HIV wild type integrase using U5 GGCA LTR relative to wild type LTR; settings: tested as the 3H-labelled form
[14] = system: Human immunodeficiency virus; test: Inhibition of HIV wild type integrase assessed as specific strand transfer activity using U5 GTGA LTR by scintillation proximity assay relative to wild type LTR; parameters: scale not given: the % may be the effect or the level left; settings: tested as the 3H-labelled form
[15] = system: Human immunodeficiency virus; test: Inhibition of HIV wild type integrase assessed as specific strand transfer activity using U5 GdC LTR by scintillation proximity assay relative to wild type LTR; parameters: scale not given: the % may be the effect or the level left; settings: tested as the 3H-labelled form
[16] = system: Human immunodeficiency virus; test: Binding affinity to HIV wild type integrase U5 CTCA LTR relative to wild type LTR; settings: tested as the 3H-labelled form
[17] = system: Human immunodeficiency virus; test: Binding affinity to HIV wild type integrase using U5 ApTCA LTR relative to wild type LTR; settings: tested as the 3H-labelled form
[18] = system: Human immunodeficiency virus; test: Inhibition of HIV wild type integrase assessed as strand transfer activity using U5 GInCA LTR by scintillation proximity assay relative to wild type LTR; parameters: scale not given: the % may be the effect or the level left; settings: tested as the 3H-labelled form
[19] = system: Human immunodeficiency virus type 1 integrase (Human immunodeficiency virus 1), Q7ZJM1 [Q148R]; test: Binding affinity to HIV recombinant integrase Q148R mutant using U5 GdCA LTR relative to wild type LTR; settings: tested as the 3H-labelled form
[20] = system: Human immunodeficiency virus; test: Binding affinity to HIV wild type integrase using U5 GTGA LTR relative to wild type LTR; settings: tested as the 3H-labelled form
[21] = system: Human immunodeficiency virus; test: Binding affinity to HIV wild type integrase using U5 GTAA LTR relative to wild type LTR; settings: tested as the 3H-labelled form
[22] = system: Human immunodeficiency virus type 1 integrase (Human immunodeficiency virus 1), Q7ZJM1 [Q148R]; test: Inhibition of U5 ApTCA LTR HIV recombinant integrase Q148R mutant assessed as specific strand transfer activity using by scintillation proximity assay relative to wild type LTR; parameters: scale not given: the % may be the effect or the level left; settings: tested as the 3H-labelled form
[23] = system: Human immunodeficiency virus type 1 integrase (Human immunodeficiency virus 1), Q7ZJM1 [Q148R]; test: Inhibition of HIV recombinant integrase Q148R mutant assessed as strand transfer activity using U5 GTdA LTR by scintillation proximity assay relative to wild type LTR; parameters: scale not given: the % may be the effect or the level left; settings: tested as the 3H-labelled form
[24] = system: Human immunodeficiency virus type 1 integrase (Human immunodeficiency virus 1), Q7ZJM1 [Q148R]; test: Inhibition of U5 INTCA LTR HIV recombinant integrase Q148R mutant assessed as specific strand transfer activity using by scintillation proximity assay relative to wild type LTR; parameters: scale not given: the % may be the effect or the level left; settings: tested as the 3H-labelled form
[25] = system: Human immunodeficiency virus type 1 integrase (Human immunodeficiency virus 1), Q7ZJM1 [N155H]; test: Inhibition of HIV recombinant integrase N155H mutant assessed as strand transfer activity using U5 GTCA LTR by scintillation proximity assay relative to wild type LTR; parameters: scale not given: the % may be the effect or the level left; settings: tested as the 3H-labelled form
[26] = system: Human immunodeficiency virus; test: Inhibition of HIV wild type integrase assessed as strand transfer activity using U5 GTTA LTR by scintillation proximity assay relative to wild type LTR relative to wild type LTR; parameters: scale not given: the % may be the effect or the level left; settings: tested as the 3H-labelled form
[27] = system: Human immunodeficiency virus; test: Inhibition of HIV wild type integrase assessed as strand transfer activity using U5 GTAT LTR by scintillation proximity assay relative to wild type LTR; parameters: scale not given: the % may be the effect or the level left; settings: tested as the 3H-labelled form
[28] = system: Human immunodeficiency virus type 1 integrase (Human immunodeficiency virus 1), Q7ZJM1 [N155H]; test: Inhibition of HIV recombinant integrase N155H mutant assessed as specific strand transfer activity using U5 INTCA LTR by scintillation proximity assay relative to wild type LTR; parameters: scale not given: the % may be the effect or the level left; settings: tested as the 3H-labelled form
[29] = system: Human immunodeficiency virus; test: Binding affinity to HIV wild type integrase using U5 TTCA LTR relative to wild type LTR; settings: tested as the 3H-labelled form
[30] = system: Human immunodeficiency virus; test: Binding affinity to HIV wild type integrase using U5 INTCA LTR relative to wild type LTR; settings: tested as the 3H-labelled form
[31] = system: Human immunodeficiency virus; test: Binding affinity to HIV wild type integrase using U5 GTCA/CddC LTR relative to wild type LTR; settings: tested as the 3H-labelled form
[32] = system: Human immunodeficiency virus; test: Inhibition of HIV wild type integrase assessed as specific strand transfer activity using U5 GACA LTR by scintillation proximity assay relative to wild type LTR; parameters: scale not given: the % may be the effect or the level left; settings: tested as the 3H-labelled form
[33] = system: Human immunodeficiency virus; test: Binding affinity to HIV wild type integrase using U5 GTC LTR relative to wild type LTR; settings: tested as the 3H-labelled form
[34] = system: Human immunodeficiency virus type 1 integrase (Human immunodeficiency virus 1), Q7ZJM1 [Q148R]; test: Inhibition of HIV recombinant integrase Q148R mutant assessed as strand transfer activity using U5 GdCA LTR by scintillation proximity assay relative to wild type LTR; parameters: scale not given: the % may be the effect or the level left; settings: tested as the 3H-labelled form
[35] = system: Human immunodeficiency virus type 1 integrase (Human immunodeficiency virus 1), Q7ZJM1 [N155H]; test: Binding affinity to HIV recombinant integrase N155H mutant using U5 GTC LTR relative to wild type LTR; settings: tested as the 3H-labelled form
[36] = system: Human immunodeficiency virus type 1 integrase (Human immunodeficiency virus 1), Q7ZJM1 [N155H]; test: Binding affinity to HIV recombinant integrase N155H mutant using U5 ApTCA LTR relative to wild type LTR; settings: tested as the 3H-labelled form
[37] = system: Human immunodeficiency virus; test: Binding affinity to HIV wild type integrase using U5 GTAT LTR relative to wild type LTR; settings: tested as the 3H-labelled form
[38] = system: Human immunodeficiency virus type 1 integrase (Human immunodeficiency virus 1), Q7ZJM1 [Q148R]; test: Inhibition of U5 GTdA LTR HIV recombinant integrase Q148R mutant assessed as specific strand transfer activity using by scintillation proximity assay relative to wild type LTR; parameters: scale not given: the % may be the effect or the level left; settings: tested as the 3H-labelled form
[39] = Inhibition of HIV wild type integrase strand transfer activity; parameters: species or system Human immunodeficiency virus
[40] = system: Human immunodeficiency virus; test: Inhibition of HIV wild type integrase assessed as strand transfer activity using U5 GTCT LTR by scintillation proximity assay relative to wild type LTR; parameters: scale not given: the % may be the effect or the level left; settings: tested as the 3H-labelled form
[41] = system: Human immunodeficiency virus; test: Inhibition of HIV wild type integrase assessed as strand transfer activity using U5 INTCA LTR by scintillation proximity assay relative to wild type LTR; parameters: scale not given: the % may be the effect or the level left; settings: tested as the 3H-labelled form
[42] = system: Human immunodeficiency virus type 1 integrase (Human immunodeficiency virus 1), Q7ZJM1 [Q148R]; test: Inhibition of U5 TTCA LTR HIV recombinant integrase Q148R mutant assessed as specific strand transfer activity using by scintillation proximity assay relative to wild type LTR; parameters: scale not given: the % may be the effect or the level left; settings: tested as the 3H-labelled form
[43] = system: Human immunodeficiency virus; test: Inhibition of HIV wild type integrase assessed as strand transfer activity using U5 GTGT LTR by scintillation proximity assay relative to wild type LTR; parameters: scale not given: the % may be the effect or the level left; settings: tested as the 3H-labelled form
[44] = system: Human immunodeficiency virus type 1 integrase (Human immunodeficiency virus 1), Q7ZJM1 [Q148R]; test: Inhibition of U5 GTCA LTR HIV recombinant integrase Q148R mutant assessed as specific strand transfer activity using by scintillation proximity assay relative to wild type LTR; parameters: scale not given: the % may be the effect or the level left; settings: tested as the 3H-labelled form

SMILES: Cn1c(N2CCCCS2(=O)=O)nc(C(=O)NCc2ccc(F)cc2)c(O)c1=O [BMS-707035]
- Activity [1]: 40%
- Activity [2]: 33%
- Activity [3]: < 25%
- Activity [4]: 90%
- Activity [5]: 25%
- Activity [6]: 25%
- Activity [7]: 40%
- Activity [8]: 2%
- Activity [9]: 115%
- Activity [10]: 35%
- Activity [11]: 21%
- Activity [12]: 25%
- Activity [13]: < 25%
- Activity [14]: 136%
- Activity [15]: 19%
- Activity [16]: < 25%
- Activity [17]: 24%
- Activity [18]: 70%
- Activity [19]: 3%
- Activity [20]: 74%
- Activity [21]: 25%
- Activity [22]: > 8%
- Activity [23]: 2.5%
- Activity [24]: > 12%
- Activity [25]: 84%
- Activity [26]: 86%
- Activity [27]: < 25%
- Activity [28]: 135%
- Activity [29]: 8%
- Activity [30]: 62%
- Activity [31]: 75%
- Activity [32]: 97%
- Activity [33]: 59%
- Activity [34]: 0.6%
- Activity [35]: 4%
- Activity [36]: 2%
- Activity [37]: < 25%
- Activity [38]: > 50%
- IC50 [39]: 15 nM
- Activity [40]: 75%
- Activity [41]: 45%
- Activity [42]: > 80%
- Activity [43]: 25%
- Activity [44]: 93%

Reference: ChEMBL document CHEMBL1156506, “Changes to the HIV long terminal repeat and to HIV integrase differentially impact HIV integrase assembly, activity, and the binding of strand transfer inhibitors” (J Biol Chem, 2007)
